Test results: the NIST ThermoML archive (doi:10.1016/j.fluid.2008.06.019)
± gives the expanded uncertainty stated by the source.

Columns and labels:
[1] = 298.15 K; 101.33 kPa; Liquid
[2] = xn = mol fraction of the nth substance listed; details: 298.15 K, 101 kPa, Liquid

Cc1ccccc1 [toluene]
Details | mass density [kg/m3]
[1] | 862.23 ± 0.27

CCCO [propan-1-ol]
Details | mass density [kg/m3]
[1] | 800.61 ± 0.29

CC(C)OC(C)C [diisopropyl ether]
Details | mass density [kg/m3]
[1] | 719.17 ± 0.33

Cc1ccccc1 [toluene] + CCCO
[2]
Details | mass density [kg/m3]
x2 = 0.0491 | 859.7 ± 0.27
x2 = 0.0987 | 857.27 ± 0.27
x2 = 0.2003 | 852.39 ± 0.27
x2 = 0.2995 | 847.48 ± 0.27
x2 = 0.4006 | 842.21 ± 0.28
x2 = 0.5001 | 836.7 ± 0.28
x2 = 0.6001 | 830.71 ± 0.28
x2 = 0.7005 | 824.13 ± 0.28
x2 = 0.8001 | 817.01 ± 0.29
x2 = 0.9006 | 809.12 ± 0.29
x2 = 0.9497 | 805 ± 0.29

CC(C)OC(C)C [diisopropyl ether] + CCCO
[2]
Details | mass density [kg/m3]
x1 = 0.0508 | 794.63 ± 0.29
x1 = 0.0999 | 789.64 ± 0.3
x1 = 0.2 | 779.84 ± 0.3
x1 = 0.2998 | 770.67 ± 0.31
x1 = 0.3993 | 762.07 ± 0.31
x1 = 0.4999 | 754.19 ± 0.32
x1 = 0.6006 | 746.71 ± 0.32
x1 = 0.7007 | 739.41 ± 0.32
x1 = 0.8001 | 732.66 ± 0.32
x1 = 0.9015 | 725.59 ± 0.33
x1 = 0.9514 | 722.22 ± 0.33

CC(C)OC(C)C [diisopropyl ether] + Cc1ccccc1
[2]
Details | mass density [kg/m3]
x1 = 0.05 | 853.94 ± 0.27
x1 = 0.0995 | 845.89 ± 0.27
x1 = 0.2004 | 829.97 ± 0.28
x1 = 0.2999 | 814.46 ± 0.29
x1 = 0.4001 | 799.53 ± 0.3
x1 = 0.5003 | 784.92 ± 0.31
x1 = 0.6001 | 770.99 ± 0.31
x1 = 0.7004 | 757.31 ± 0.31
x1 = 0.8003 | 744.27 ± 0.32
x1 = 0.9003 | 731.28 ± 0.33
x1 = 0.9498 | 725.19 ± 0.33
